Reference: patent publication US6221877A, “Substituted 4-phthalimidocarboxanilides as inhibitors of purine salvage phosphoribosyltransferases” (Regents of the University of California, priority 2000, dated 2001)
pIC50, pKi: −log10 of the molar value. Entries after “also recorded” stand apart in the source; their conditions may differ. Like-named read-outs stand apart in the source and are kept apart here. One block for each compound: values may come before it.

Columns and labels:
T. foetus HGXPRT = target: T1, T. foetus HGXPRT (Tritrichomonas foetus, UniProt P51900); test: Spectrophotometric enzyme assay, recombinant T. foetus HGXPRT; format: biochemical; details: for increase in affinity for T. foetus HGXPRT (lower IC50) compared to compound Ia(1): relative to compound Ia(1); for potency of combined 2-methyl / benzyl-substituted inhibitors relative to parent inhibitors: compared with Ia(4), Ia(5), Ia(6)
T1 construct: made in house; host or cells: E. coli strain SØ606 transformed with pBTfprt
T1 sequence (P51900 1-183): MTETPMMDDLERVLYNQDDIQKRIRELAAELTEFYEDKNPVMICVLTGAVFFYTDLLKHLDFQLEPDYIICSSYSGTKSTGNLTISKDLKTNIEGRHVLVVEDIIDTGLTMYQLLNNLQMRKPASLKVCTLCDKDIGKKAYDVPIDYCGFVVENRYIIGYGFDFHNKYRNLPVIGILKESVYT
Experimental: (§1) Enzyme Assays: Recombinant T. foetus HGXPRT and human HGPRT were isolated from E. coli strain S.O slashed.606, transformed with pBTfprt and pBAcprt expression plasmids, respectively (Chin, et al., Mol. Biochem. Parasitol. 63:221-229 (1994); Kanaaneh, et al., Eur. J. Biochem. 223:595-601 (1994)). Spectrophotometric enzyme assays were performed as described in Yuan, et al., Biochemistry 31:806-810 (1992). The compounds tested were dissolved in DMSO-d6, and concentrations were determined by integration of NMR peaks with methylene chloride as an internal standard. The concentration of DMSO in the assays was kept at 10%.

human HGPRT = target: T2, human HGPRT (Homo sapiens, UniProt P00492); test: Spectrophotometric enzyme assay, recombinant human HGPRT; format: biochemical; details: for pIC50: Table 2, read-out: IC50, Human HGXPRT; for selectivity for T. foetus HGXPRT over human HGPRT: ratio of human HGPRT to T. foetus HGXPRT inhibition
T2 construct: made in house; host or cells: E. coli strain SØ606 transformed with pBAcprt
T2 sequence (P00492 1-218): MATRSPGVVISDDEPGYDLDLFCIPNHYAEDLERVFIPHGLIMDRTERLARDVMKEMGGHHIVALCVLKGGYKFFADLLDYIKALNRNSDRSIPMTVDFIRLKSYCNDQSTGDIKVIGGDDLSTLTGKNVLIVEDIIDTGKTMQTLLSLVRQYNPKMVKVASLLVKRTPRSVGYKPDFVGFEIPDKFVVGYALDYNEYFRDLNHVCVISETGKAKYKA
Experimental: as §1

[1] = test system: T. foetus strain kv1 trophozoites; test: Cell culture assay, in vitro growth of T. foetus; format: cell-based, Tritrichomonas foetus; details: for pIC50: Tritrichomonas foetus
Experimental: Cell Culture Assays: T. foetus strain kv1 trophozoites were cultivated in Diamond's TYM medium at 37° C. Cell densities in time samples were determined using a hemocytometer. The concentration of DMSO in culture medium was maintained at or below 1%, which had no apparent effect on cell growth.
Indeed, compound Ia(5)-induced inhibition of T. foetus growth was reversed by increasing the concentration of hypoxanthine in the growth medium. A minimum hypoxanthine concentration between 0.2 and 0.5 mM was required for the survival of the cells challenged with 5 μM of compound Ia(5). Hypoxanthine at concentrations>1 mM essentially abolished any inhibition of cell proliferation under these experimental conditions.

[2] = Table 1, 10% DMSO, read-out: IC50, Inhibition of T. foetus HGXPRT
[3] = Table 1, Diamond's TYM medium, 37° C., DMSO at or below 1%, read-out: ED50, in vitro growth of T. foetus
[4] = read-out: IC50 values, T. foetus HGXPRT

pIC50 (T. foetus HGXPRT; [2]): 5.10
SMILES: O=C(Nc1cc(OCc2ccccc2)ccc1Cl)c1ccc2c(c1)C(=O)NC2=O [Ia(3), (4'-Phthalimido)Carboxamido-3-Benzyloxy-6-Chlorobenzene]

pIC50 (T. foetus HGXPRT; [2]): 4.55
SMILES: Cc1cc(COc2ccccc2)cc(NC(=O)c2ccc3c(c2)C(=O)NC3=O)c1 [Ia(2), (4'-Phthalimido)Carboxamido-3-Methyl-5-Phenoxymethylbenzene]

pIC50 (T. foetus HGXPRT; [2]): 4.28
SMILES: CN(Cc1ccccc1NC(=O)c1ccc2c(c1)C(=O)NC2=O)C1CCCCC1 [Ic(1)]

pIC50 (T. foetus HGXPRT; [2]): 5.37 | pIC50 (human HGPRT): < 4.30 | selectivity for T. foetus HGXPRT over human HGPRT (human HGPRT): approximately 100 fold | pIC50 [1, 3]: 5.29
SMILES: O=C(Nc1cccc(OCc2ccccc2I)c1)c1ccc2c(c1)C(=O)NC2=O [Ia(10)]

pIC50 (T. foetus HGXPRT; [2]): 4.92
SMILES: O=C(Nc1cccc(OCc2c(Cl)cccc2Cl)c1)c1ccc2c(c1)C(=O)NC2=O [Ia(13)]

SMILES: Cc1ccc(COc2cccc(NC(=O)c3ccc4c(c3)C(=O)NC4=O)c2)cc1 [Ia(6)]
pIC50 (T. foetus HGXPRT; [2]): 5.77 | increase in affinity for T. foetus HGXPRT (lower IC50) compared to compound Ia(1) (T. foetus HGXPRT): 10 fold

pIC50 (T. foetus HGXPRT; [2]): 5.15
SMILES: O=C(Nc1cccc(OCc2cc(Cl)ccc2Cl)c1)c1ccc2c(c1)C(=O)NC2=O [Ia(14)]

pIC50 (T. foetus HGXPRT; [2]): 5.05
SMILES: O=C(Nc1cccc(OCc2cccc(I)c2)c1)c1ccc2c(c1)C(=O)NC2=O [Ia(9)]

SMILES: O=C(Nc1ccc(Cl)c(Cl)c1)c1ccc2c(c1)C(=O)NC2=O [(4'-phthalimido)carboxamido-3,4-dichlorobenzene, reference compound]
activity on HGXPRT compared with 5-[N-(3,4-dichlorophenyl)carbamoyl]-1,3-isobenzofurandione (T. foetus HGXPRT; comparison of the phthalimide with its phthalic anhydride analog): equally active

SMILES: Cc1c(NC(=O)c2ccc3c(c2)C(=O)NC3=O)cccc1OCc1ccc(Br)cc1 [Ia(15)]
pIC50 (T. foetus HGXPRT; [2]): 5.28 | potency of combined 2-methyl / benzyl-substituted inhibitors relative to parent inhibitors (T. foetus HGXPRT): less potency

SMILES: Cc1c(NC(=O)c2ccc3c(c2)C(=O)NC3=O)cccc1OCc1ccc(Cl)c(Cl)c1 [Ia(16)]
pIC50 (T. foetus HGXPRT; [2]): 5.03 | potency of combined 2-methyl / benzyl-substituted inhibitors relative to parent inhibitors (T. foetus HGXPRT): less potency

pIC50 (T. foetus HGXPRT; [2]): 5.09
SMILES: COc1cc(COc2cccc(NC(=O)c3ccc4c(c3)C(=O)NC4=O)c2)cc(OC)c1 [Ia(7)]

pIC50 (T. foetus HGXPRT; [4]): 4.80 | pIC50 [1, 3]: 4.72
SMILES: O=C(Nc1cccc(OCc2ccccc2)c1)c1ccc2c(c1)C(=O)NC2=O [Compound Ia(1)]

SMILES: O=C(Nc1cccc(OCc2ccc(Cl)c(Cl)c2)c1)c1ccc2c(c1)C(=O)NC2=O [Compound Ia(12)]
pIC50 (T. foetus HGXPRT; [2]): 5.46 | increase in affinity for T. foetus HGXPRT (lower IC50) compared to compound Ia(1) (T. foetus HGXPRT): ~5 fold | pIC50 (human HGPRT): 4.62 | pIC50 [1, 3]: 5.34

pIC50 (T. foetus HGXPRT; [4]): 5.30
SMILES: O=C(Nc1cccc2c1C(=O)NC2=O)c1ccc2c(c1)C(=O)NC2=O [Id(1)]

pIC50 (T. foetus HGXPRT; [2]): 4.48 | pIC50 [1, 3]: 4.41
SMILES: CCN(CC)S(=O)(=O)c1ccc(OC)c(NC(=O)c2ccc3c(c2)C(=O)NC3=O)c1 [Ib(1)]

pIC50 (T. foetus HGXPRT; [2]): 5.52 | pIC50 (human HGPRT): < 4.30 | selectivity for T. foetus HGXPRT over human HGPRT (human HGPRT): approximately 100 fold | pIC50 [1, 3]: 5.41
SMILES: Cc1c(NC(=O)c2ccc3c(c2)C(=O)NC3=O)cccc1OCc1ccccc1 [Ia(4)]

SMILES: O=C(Nc1cccc(OCc2ccc(Br)cc2)c1)c1ccc2c(c1)C(=O)NC2=O [Compound Ia(5), (4'-phthalimido)carboxamido-3-(4-bromobenzyloxy)-benzene]
pIC50 (T. foetus HGXPRT; [2]): 5.82 | pKi (T. foetus HGXPRT; competitive with respect to guanine, read-out: K (inhibition constant) with respect to guanine, T. foetus HGXPRT): 6.31 | increase in affinity for T. foetus HGXPRT (lower IC50) compared to compound Ia(1) (T. foetus HGXPRT): 10 fold | mode of inhibition of T. foetus HGXPRT (T. foetus HGXPRT; with respect to guanine): competitive inhibitor; also recorded: competitive mode of inhibition | pIC50 (human HGPRT): 4.35 | selectivity for T. foetus HGXPRT over human HGPRT (human HGPRT): 30 fold | concentration dependence of inhibition of T. foetus growth in culture [1]: concentration-dependent | pIC50 ([1]; read-out: ED50, growth of cultured T. foetus cells): 5.55 | hypoxanthine concentration that essentially abolished any inhibition of cell proliferation ([1]; cells challenged with 5 μM of compound): > 1 mM | reversal of growth inhibition by exogenous hypoxanthine ([1]; increasing hypoxanthine in the growth medium): reversed
